# What was measured:
# [1] = Plasma protein binding rate, equilibrium dialysis (rat plasma); assay type: in vitro ADME, Sprague-Dawley rats; conditions: r (Sprague-Dawley rat plasma), dialysis 4 hours at 37 °C, read-out: Unbound PPB%
# Description: (§1) The protein binding rates of the compounds in the plasma of CD-1 mice, Sprague-Dawley rats, beagle dogs, cynomolgus monkeys, and human were determined using equilibrium dialysis method.
# (§2) Commercially available plasma, dual-layer dialysis membrane, and equilibrium dialysis device.
# (§3) The dual-layer dialysis membrane was soaked in ultrapure water for about 1 hour, removed and then divided into two parts. It was then soaked in an ethanol:water (20:80, v:v) solution for 20 minutes or placed at 2 to 8 °C, and it was valid for 1 month. Before starting the assay, the dialysis membrane was rinsed twice with ultrapure water and then soaked in ultrapure water for another 20 minutes for later use.
# (§4) On the day of assay, the frozen plasma of CD-1 mice, Sprague-Dawley rats, beagle dogs, cynomolgus monkeys, and human was thawed in running cold tap water. After the plasma was completely thawed, the plasma was centrifuged at 3220×g for 5 minutes, and the suspended substances and precipitates in it were removed. The pH of the plasma was determined. The plasma with a pH in the range of 7.4 ± 0.1 was directly used, or the plasma with a pH in the range of 7.4 ± 0.1 after an adjustment with 1% phosphoric acid or 1M sodium hydroxide was used.
# (§5) Preparation process of plasma samples: 597 µL of blank plasma from each of the above five species was taken, respectively. 3 µL of a compound or warfarin working solution was added, and the mixture was mixed thoroughly to give a plasma sample with a compound concentration of 2 µM and a warfarin concentration of 2 µM (n=1). The concentration of the organic phase DMSO was 0.5%. The sample was thoroughly mixed before proceeding to the next step.
# (§6) Preparation process of T0 samples: 50 µL of a plasma sample containing the compound and warfarin was transferred to a sample receiving plate (n=3), and 50 µL of blank PBS was immediately added. Then, 500 µL of stop solution was added to the T0 sample of the compound and warfarin, and the mixture was stored at 2 to 8 °C, waiting to be processed later together with other dialysis-processed samples.
# (§7) Dialysis process of plasma samples: 100 µL of a compound (2 µM) and warfarin (2 µM) plasma sample was added to the donor of each dialysis well (n=3), and 100 µL of blank PBS was added to the corresponding receiver of the dialysis well. The dialysis plate was placed in a 5% CO2 incubator, and incubated at 37 °C with shaking at approximately 100 rpm for 4 hours.
# (§8) After the dialysis was completed, 50 µL of dialysis-processed PBS sample and dialysis-processed plasma sample (n=3) were transferred to a new 96-well plate (sample receiving plate). The corresponding volume of the corresponding blank plasma or PBS was added to the sample to make the final volume of each sample well 100 µL, with a plasma to PBS volume ratio of 1:1. All the samples were analyzed by LC-MS/MS after protein precipitation.
# (§9) The formulas for calculating the unbound fraction (%Unbound), bound fraction (%Bound) and recovery fraction (%Recovery) of a compound are as follows: %Unbound = 100 ×F / T %Bound = 100 - %Unbound %Recovery = 100 ×(F + T)/ T0 wherein F is the concentration of the compound at the receiver of dialysis; T is the concentration of the compound at the supply end of dialysis; and T0 is the concentration of the compound in the plasma at time zero.
# hKCNQ2/3 = molecular target: T1, hKCNQ2/3 (Homo sapiens, UniProt O43525+O43526); experiment: hKCNQ2/3 thallium flux assay (FLIPR); assay type: cell-based; conditions: agonistic effect, CHO cell line stably expressing hKCNQ2/3
# T1 construct: expressed in transfected cells; host or cells: CHO
# T1 sequence (O43525 whole entry): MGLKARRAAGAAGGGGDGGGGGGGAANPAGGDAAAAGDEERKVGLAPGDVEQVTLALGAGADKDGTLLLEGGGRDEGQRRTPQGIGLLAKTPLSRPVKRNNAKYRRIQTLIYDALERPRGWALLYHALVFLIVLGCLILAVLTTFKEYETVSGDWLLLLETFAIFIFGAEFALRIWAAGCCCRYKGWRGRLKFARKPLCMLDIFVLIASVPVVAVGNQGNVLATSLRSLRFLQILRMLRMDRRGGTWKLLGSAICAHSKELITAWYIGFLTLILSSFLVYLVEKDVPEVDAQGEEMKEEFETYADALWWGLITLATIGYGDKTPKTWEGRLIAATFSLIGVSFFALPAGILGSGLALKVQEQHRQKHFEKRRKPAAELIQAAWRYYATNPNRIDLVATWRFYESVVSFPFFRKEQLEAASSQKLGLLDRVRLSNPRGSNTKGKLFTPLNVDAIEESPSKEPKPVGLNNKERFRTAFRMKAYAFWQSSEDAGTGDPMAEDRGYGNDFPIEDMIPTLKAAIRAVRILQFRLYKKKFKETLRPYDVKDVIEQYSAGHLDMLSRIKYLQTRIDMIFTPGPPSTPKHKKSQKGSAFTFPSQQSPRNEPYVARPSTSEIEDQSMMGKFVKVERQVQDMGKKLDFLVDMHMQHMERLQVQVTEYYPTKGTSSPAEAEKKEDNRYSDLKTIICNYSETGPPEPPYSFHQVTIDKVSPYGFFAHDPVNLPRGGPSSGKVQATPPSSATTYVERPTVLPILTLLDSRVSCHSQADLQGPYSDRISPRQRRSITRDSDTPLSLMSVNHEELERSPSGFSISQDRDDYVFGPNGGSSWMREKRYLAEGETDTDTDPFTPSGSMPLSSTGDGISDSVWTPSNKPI
# T1 sequence (O43526 whole entry): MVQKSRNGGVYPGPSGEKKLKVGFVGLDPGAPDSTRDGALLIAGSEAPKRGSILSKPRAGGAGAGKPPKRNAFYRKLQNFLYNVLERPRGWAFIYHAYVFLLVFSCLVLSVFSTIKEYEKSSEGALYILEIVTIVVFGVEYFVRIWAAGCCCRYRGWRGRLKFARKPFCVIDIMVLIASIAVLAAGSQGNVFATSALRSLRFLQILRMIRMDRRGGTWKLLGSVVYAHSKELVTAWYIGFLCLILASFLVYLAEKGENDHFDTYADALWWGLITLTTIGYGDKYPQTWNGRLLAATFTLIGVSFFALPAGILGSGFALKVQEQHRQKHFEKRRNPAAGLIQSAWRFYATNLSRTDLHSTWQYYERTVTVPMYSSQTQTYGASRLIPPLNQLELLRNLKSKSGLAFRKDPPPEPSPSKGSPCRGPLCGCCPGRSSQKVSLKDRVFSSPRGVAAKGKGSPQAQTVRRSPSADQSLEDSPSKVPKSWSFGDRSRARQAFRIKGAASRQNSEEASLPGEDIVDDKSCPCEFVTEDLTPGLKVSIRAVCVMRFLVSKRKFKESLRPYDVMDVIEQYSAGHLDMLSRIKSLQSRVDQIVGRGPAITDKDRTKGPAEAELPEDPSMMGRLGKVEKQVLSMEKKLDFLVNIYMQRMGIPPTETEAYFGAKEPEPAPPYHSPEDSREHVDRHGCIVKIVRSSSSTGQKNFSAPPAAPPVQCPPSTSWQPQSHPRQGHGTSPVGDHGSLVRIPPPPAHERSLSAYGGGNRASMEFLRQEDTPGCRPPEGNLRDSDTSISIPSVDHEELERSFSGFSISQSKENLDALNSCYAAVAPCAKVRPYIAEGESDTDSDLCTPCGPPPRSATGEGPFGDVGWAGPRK
# Source text: The present disclosure also provides the following assay methods: • Assay method 1: hKCNQ2/3 thallium flux assay • Purpose of the assay: To determine the in vitro concentration-response relationship of the compounds in a CHO cell line stably expressing hKCNQ2/3 using FLIPR thallium flux assay.
# CHO cells stably transfected with hKCNQ2/3.
# The cell line was passaged three times a week at a split ratio of 1:2 to 1:3. When the cells grew to a confluence degree of greater than 80% in a T-75 cell flask, they were digested with 0.25% trypsin-EDTA solution for about 1 minute, and then the cells were transferred from the cell flask for passage. According to the split ratio, the cells were transferred to another T-75 cell flask containing complete cell growth culture medium. Note: In order to maintain the logarithmic growth of cells, the cell growth should be maintained in a subconfluent monolayer state. The cells were passaged every 2 to 3 days according to the cell doubling time.
# • (1) Day 1, cell preparation: The cells were digested according to the above method, and the cell density and viability were determined using Cell Countess. The volume of the single-cell suspension was adjusted with complete cell growth culture medium. Then, the hKCNQ2/3_CHO cells were seeded at a density of approximately 20,000 cells/well (30 µL/well) into a PDL-precoated 384-well plate. Then, the plate was incubated at 37 °C with 5% CO2 humidified air in an incubator overnight. • (2) Day 2, compound preparation: A test compound was diluted to a storage concentration with dimethyl sulfoxide (DMSO), and stored in a freezer at -20 °C. A compound addition program was set up on the ECHO liquid workstation, and the compound was added to the plate using the ECHO liquid workstation. A positive control was prepared using Retigabine (RTG) with a maximum concentration of 100 µM, which was subjected to a 3-fold dilution, resulting in a total of 9 doses constituting the plate map required for plating. Prepare the plate using a stimulation buffer containing 5 mM K^+ and 1 mM Tl^+. Note: 1) K2SO4 and Tl2SO4 were prepared in a 1× chloride-free buffer. When different voltage-gated potassium channels were involved, the concentrations of Tl^+ and K^+ were needed to be adjusted. The concentration of Tl^+ was approximately 0.5 mM to 5 mM, and the concentration of K^+ was approximately 5 mM to 30 mM. 2) Each 1 mM solution of K2SO4 and Tl2SO4 contained 2 mM K^+ and Tl^+. The final concentration should be calculated based on the ion concentrations. 3) TlCl was easily precipitated and a chloride-free buffer was required. • (3) Day 2, assay testing: When the cells reached the confluence degree, the cell analysis plate was taken out from the incubator. The assay buffer was prepared and the Tl^+ dye (Molecular Devices # R8222) was diluted. The culture medium was discarded using the liquid workstation Bravo and 25 µL of Tl^+ dye was added to each well. The plate was incubated for 1 hour, and then the cell analysis plate, composite plate, and FLIPR tip were placed in FLIPR^TETRA (Molecular Devices, USA) for FLIPR assay. The tip was set up, and then the baseline was read for 60 seconds. Then, 12.5 µL from the composite plate (3×) was added to the cell analysis plate, and the data were recorded for at least 5 minutes at the same time. • (4) Data processing: The maximum signal was generated with FLIPR software. Excel (2013) and Prism 6.01 were used for data analysis. The data quality control was performed with S/B > 2.00 and Z-factor > 0.50. IC50 or EC50 was defined as the midline between the lowest and the highest plateaus, and it was calculated using a four-parameter logistic model with Prism 6.01.
# Purpose of the assay: To determine the in vitro concentration-response relationship of the compounds in a CHO cell line stably expressing hKCNQ2/3 using FLIPR thallium flux assay. […]
# male CD-1 mice = experiment: Maximal electroshock-induced epilepsy model, behavioral pharmacodynamics; assay type: in vivo; conditions: 5 mg/kg orally, one hour before electrical stimulation
# Source text: This study used behavioral tests in male CD-1 mice to investigate the effects of test compounds on acute epileptic seizures behavior induced by maximal electroshock.
# Male CD-1 mice (25 to 35g) were used as the experimental animals and fed with standard feed (Beijing Vital River Laboratory Animal Technology Co., Ltd.).
# After arriving at the animal facility, the experimental animals needed to acclimatize for at least one week. The mice were observed daily for vital signs, and randomly divided into groups according to their body weights one day before the drug administration. One hour before the electrical stimulation, different dosages of the test compound were orally administered to each group. On the day of the assay, the male CD-1 mice in each group were anesthetized locally at the cornea with 2% lidocaine. Then, silver bipolar electrodes were used to electrically stimulate the cornea of the mice with 18 mA, 60 Hz, a pulse width of 0.6 ms, and a stimulation time of 1 s to induce seizures. Subsequently, the latency of seizures and the duration of limb rigidity in mice after the electrical stimulation were observed, and the protection rate from seizures for each group was statistically analyzed.
# [2] = Plasma protein binding rate, equilibrium dialysis (dog plasma); assay type: in vitro ADME, beagle dogs; conditions: d (beagle dog plasma), dialysis 4 hours at 37 °C, read-out: Unbound PPB%
# Description: as §1, §2, §3, §4, §5, §6, §7, §8, §9
# [3] = Plasma protein binding rate, equilibrium dialysis (human plasma); assay type: in vitro ADME; conditions: dialysis 4 hours at 37 °C, read-out: Unbound PPB%
# Description: as §1, §2, §3, §4, §5, §6, §7, §8, §9
# [4] = Plasma protein binding rate, equilibrium dialysis (mouse plasma); assay type: in vitro ADME, CD-1 mice; conditions: m (CD-1 mouse plasma), dialysis 4 hours at 37 °C, read-out: Unbound PPB%
# Description: as §1, §2, §3, §4, §5, §6, §7, §8, §9
# [5] = Plasma protein binding rate, equilibrium dialysis (monkey plasma); assay type: in vitro ADME, cynomolgus monkeys; conditions: c (cynomolgus monkey plasma), dialysis 4 hours at 37 °C, read-out: Unbound PPB%
# Description: as §1, §2, §3, §4, §5, §6, §7, §8, §9
SMILES,"fraction unbound at 4 h, 2 µM [1]",EC50 (hKCNQ2/3) [nM],Protection rate from seizures (male CD-1 mice) [%],"fraction unbound at 4 h, 2 µM [2]","fraction unbound at 4 h, 2 µM [3]","fraction unbound at 4 h, 2 µM [4]","fraction unbound at 4 h, 2 µM [5]"
CC(C)(C)CC(=O)Nc1nc2cc3c(cc2n1C1CCC1)CCC3 [Compound 7],0.003,420,66.67,0.006,0.004,0.003,0.012
CC(C)(C)CC(=O)Nc1nc2c(F)c3c(cc2n1C1CCC1)CCC3 [Compound 8],–,420,50,–,–,–,–
CC(C)(C)CC(=O)Nc1nc2cc3c(cc2n1C(C)(C)C)CCC3 [Compound 10],–,120,33.33,–,–,–,–
CC(C)(C)CC(=O)Nc1nc2cc3c(cc2n1C1(C)CCC1)CCC3 [Compound 9],0.002,160,50,0.004,0.003,0.002,0.004

# — EP4786454A1, “HETEROARYL DERIVATIVE AND USE THEREOF” (priority 2023, dated 2025)
